Laboratory results published in patent US10052306B2 (LUC THERAPEUTICS, INC., priority 2013, dated 2018).
pIC50: −log10 of the molar value.

Experiments:
NR1/NR2B [1] = target: NR1/NR2B (Homo sapiens (Human), UniProt Q13224); experiment: Cell assay: FDSS Ca2+ influx inhibition in HEK293 cells expressing NR1/NR2B; details: read-out: NR2B NAM IC50; HEK293 cells expressing NR1/NR2B, Ca2+ influx;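 note: Fluo-8 Ca2+ signal read on Hamamatsu FDSS 6000 after glutamate, glycine and Ca2+ challenge following 10 min compound preincubation, end/baseline fluorescence ratio compared with MK801 control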
Sequence of NR1/NR2B (Homo sapiens (Human), UniProt Q13224) (Q13224 27-1484, other chains not shown): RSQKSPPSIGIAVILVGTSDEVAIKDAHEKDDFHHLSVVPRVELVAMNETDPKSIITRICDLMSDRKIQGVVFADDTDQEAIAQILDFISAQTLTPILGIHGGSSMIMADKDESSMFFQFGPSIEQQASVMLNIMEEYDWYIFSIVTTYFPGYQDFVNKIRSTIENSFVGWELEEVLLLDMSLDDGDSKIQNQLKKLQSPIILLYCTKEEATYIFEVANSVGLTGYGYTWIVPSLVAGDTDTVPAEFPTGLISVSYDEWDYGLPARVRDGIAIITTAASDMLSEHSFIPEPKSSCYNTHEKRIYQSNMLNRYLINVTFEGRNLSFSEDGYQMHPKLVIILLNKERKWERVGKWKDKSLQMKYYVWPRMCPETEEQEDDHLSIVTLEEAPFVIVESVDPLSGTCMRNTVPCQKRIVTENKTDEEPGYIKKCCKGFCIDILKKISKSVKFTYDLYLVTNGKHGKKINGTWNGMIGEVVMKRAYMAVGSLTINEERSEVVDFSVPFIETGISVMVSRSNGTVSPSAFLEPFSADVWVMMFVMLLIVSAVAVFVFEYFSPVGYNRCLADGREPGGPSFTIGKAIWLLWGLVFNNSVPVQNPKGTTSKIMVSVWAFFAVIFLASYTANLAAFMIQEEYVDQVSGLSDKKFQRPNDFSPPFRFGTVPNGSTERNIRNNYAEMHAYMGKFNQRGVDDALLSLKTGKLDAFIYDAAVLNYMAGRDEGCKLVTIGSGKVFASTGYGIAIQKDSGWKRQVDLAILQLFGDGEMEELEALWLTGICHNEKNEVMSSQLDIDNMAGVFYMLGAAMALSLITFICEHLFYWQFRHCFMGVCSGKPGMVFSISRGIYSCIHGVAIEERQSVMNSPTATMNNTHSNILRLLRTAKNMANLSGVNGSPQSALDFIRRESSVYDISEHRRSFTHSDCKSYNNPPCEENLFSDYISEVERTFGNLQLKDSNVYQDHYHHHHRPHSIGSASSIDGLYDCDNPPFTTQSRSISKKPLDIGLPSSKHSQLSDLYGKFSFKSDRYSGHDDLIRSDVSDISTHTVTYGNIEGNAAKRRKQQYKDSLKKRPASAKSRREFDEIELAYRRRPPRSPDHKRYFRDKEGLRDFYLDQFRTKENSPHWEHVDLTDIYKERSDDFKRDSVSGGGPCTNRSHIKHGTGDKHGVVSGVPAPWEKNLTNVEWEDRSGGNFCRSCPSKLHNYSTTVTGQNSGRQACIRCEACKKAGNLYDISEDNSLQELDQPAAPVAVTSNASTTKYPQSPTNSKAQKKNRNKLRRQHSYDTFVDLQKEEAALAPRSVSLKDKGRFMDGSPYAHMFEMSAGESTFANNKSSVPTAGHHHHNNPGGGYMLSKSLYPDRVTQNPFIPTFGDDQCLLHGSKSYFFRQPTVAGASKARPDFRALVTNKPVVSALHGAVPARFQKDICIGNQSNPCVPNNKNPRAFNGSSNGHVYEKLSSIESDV
Description: (§1) Cell Culture and plating: HEK293 cells expressing NR1/NR2B (Chantest, Cleveland, Ohio) were grown to 70-80% confluency as an adherent monolayer in standard tissue culture flasks at 37° C., 5% CO2 per supplier's instructions. NR2B expression was induced by incubation with 0.3-0.4 μg/ml tetracycline in the presence of 4 mM ARL-15896 for 18-24 hours under the same growth conditions, then transferred to 30° C. for another 3-5 hours.
(§2) After induction, cell culture medium was removed and cells were rinsed once with Ca^2+ and Mg^2+-free Dulbecco's phosphate buffered saline. Cells were then removed from the flask using TrypLE™ Express (Life Technologies) according to the manufacturer's instructions and collected to 50 ml centrifuge tubes. Following two washes in Ca^2+/Mg^2+-free HBSS with 20 mM HEPES (HHnoCa), cells were counted and viability assessed using trypan blue. To load cells with Ca^2+-sensitive dye, they were resuspended in fluo-8 plus Component B (AAT Bioquest Products) diluted in HHnoCa and incubated 15 minutes at 37° C., followed by 30 minutes at room temp (in dark). Cells were then washed and resuspended in HHnoCa to remove extracellular dye and plated in 384-well plates (Falcon, uncoated) at 20,000-30,000 cells/well in a final volume of 25 μl/well.
(§3) FDSS Assay: To each well of the plate, 10 μL test compound, control (MK801) or HHnoCa buffer was added to a final concentration of 10 μM with a final concentration of DMSO of 0.1%. Following 10 minutes pre-incubation in the dark, plates are loaded onto the Hamamatsu FDSS 6000. After collecting baseline fluorescence images, 3 μM glutamate, 3 glycine, and 1 mM Ca^2+ in HHnoCa buffer is added to each well, and Ca^2+ is recorded for 3 minutes. Data were processed by computing ratio of fluorescence at the end of data collection to baseline fluorescence to assess degree of Ca′ influx inhibition relative to that observed in MK801.

NR1/NR2B [2] = target: NR1/NR2B (Homo sapiens (Human), UniProt Q05586+Q13224); experiment: as above; details: Binned Activity, HEK293 cells expressing NR1/NR2B, Ca2+ influx; binned NR2B NAM IC50
Sequence of NR1/NR2B (Homo sapiens (Human), UniProt Q05586+Q13224) (Q13224 27-1484, other chains not shown): as above
Description: as §1, §2, §3

SMILES	pIC50 (NR1/NR2B [1])	pIC50 (NR1/NR2B [2])
O=C(CN1C[C@@H]2C[C@@](O)(c3cccnc3F)C[C@@H]2C1)c1ccc(O)cn1 [Example 244, 2-((3aR,6aS)-5-(2-fluoropyridin-3-yl)-5-hydroxyhexahydrocyclo-penta[c]pyrrol-2(1H)-yl)-1-(5-hydroxypyridin-2-yl)ethanone]	5.00	< 5.00
O=C(CN1C[C@@H]2C[C@@](O)(Cc3cccc(F)c3F)C[C@@H]2C1)c1ccc(O)cn1 [Example 247, 2-((3aR,5r,6aS)-5-(2,3-difluorobenzyl)-5-hydroxyhexahydrocyclo-penta[c]pyrrol-2(1H)-yl)-1-(5-hydroxypyridin-2-yl)ethanone]	5.51	5.00 to 6.00
O=C(CN1C[C@@H]2C[C@@](O)(Cc3cccc(F)c3F)C[C@@H]2C1)c1ccc(O)cc1 [Example 249, 2-((3aR,5r,6aS)-5-(2,3-difluorobenzyl)-5-hydroxyhexahydrocyclo-penta[c]pyrrol-2(1H)-yl)-1-(4-hydroxyphenyl)ethanone]	6.96	6.00 to 7.00
Cc1cc(F)ccc1C[C@]1(O)C[C@H]2CN(CC(=O)c3ccc(O)cc3)C[C@H]2C1 [Example 250, 2-((3aR,5r,6aS)-5-(4-fluoro-2-methylbenzyl)-5-hydroxyhexahydrocyclo-penta[c]pyrrol-2(1H)-yl)-1-(4-hydroxyphenyl)ethanone]	6.86	6.00 to 7.00
O=C(CN1C[C@@H]2C[C@@](O)(Cc3ccc(F)c(F)c3)C[C@@H]2C1)c1ccc(O)cc1 [Example 252, 2-((3aR,5r,6aS)-5-(3,4-difluorobenzyl)-5-hydroxyhexahydrocyclo-penta[c]pyrrol-2(1H)-yl)-1-(4-hydroxyphenyl)ethanone]	7.07	> 7.00
Oc1ccc([C@@H](O)CN2C[C@@H]3C[C@@](O)(Cc4ccc(F)cc4)C[C@@H]3C2)nc1 [Example 255, (3aR,5S,6aS)-5-(4-fluorobenzyl)-2-((S)-2-hydroxy-2-(5-hydroxypyridin-2-yl)ethyl)octahydrocyclo-penta[c]pyrrol-5-ol]	7.62	> 7.00
Oc1ccc([C@H](O)CN2C[C@@H]3C[C@@](O)(Cc4ccc(F)cc4)C[C@@H]3C2)nc1 [Example 256, (3aR,5R,6aS)-5-(4-fluorobenzyl)-2-((R)-2-hydroxy-2-(5-hydroxypyridin-2-yl)ethyl)octahydrocyclo-penta[c]pyrrol-5-ol]	7.50	> 7.00
O=C(CN1C[C@@H]2C[C@@](O)(Cc3ccccc3)C[C@@H]2C1)c1ccc(-c2ccccn2)cc1 [Example 266, 2-((3aR,5r,6aS)-5-benzyl-5-hydroxyhexahydrocyclo-prenta[c]pyrrol-2(1H)-yl)-1-(4-(pyridin-2-yl)phenyl)ethanone]	5.00	< 5.00
O=C(CN1C[C@@H]2C[C@@](O)(Cc3ccccc3)C[C@@H]2C1)c1ccc(-c2cccnc2)cc1 [Example 267, 2-((3aR,5r,6aS)-5-benzyl-5-hydroxyhexahydrocyclo-penta[c]pyrrol-2(1H)-yl)-1-(4-(pyridin-3-yl)phenyl)ethanone]	5.00	< 5.00
O=C(CN1C[C@@H]2C[C@@](O)(Cc3ccccc3)C[C@@H]2C1)c1cccc(-c2ccccc2)c1 [Example 268, 1-([1,1′-biphenyl]-3-yl)-2-((3aR,5r,6aS)-5-benzyl-5-hydroxyhexahydrocyclo-penta[c]pyrrol-2(1H)-yl)ethanone]	5.00	< 5.00
O=C(CN1C[C@@H]2CC(O)(CCc3ccccc3)C[C@@H]2C1)c1ccc(-c2ccccc2)cc1 (some centres unmarked) [Example 269, 2-[5-hydroxy-5-(2-phenylethyl)-octahydrocyclopenta[c]pyrrol-2-yl]-1-(4-phenylphenyl)ethan-1-one]	5.00	< 5.00
O=C(CN1C[C@@H]2CC(O)(CCc3ccccc3)C[C@@H]2C1)c1ccc(-c2cccc(F)c2)cc1 (some centres unmarked) [Example 270, 1-[4-(3-fluorophenyl)phenyl]-2-[5-hydroxy-5-(2-phenylethyl)-octahydrocyclopenta[c]pyrrol-2-yl]ethan-1-one]	5.00	< 5.00
O=C(CN1C[C@@H]2C[C@@](O)(Cc3ccccc3)C[C@@H]2C1)c1cccc(-c2cccc(F)c2)c1 [Example 271, 2-((3aR,5r,6aS)-5-benzyl-5-hydroxyhexahydrocyclo-penta[c]pyrrol-2(1H)-yl)-1-(3′-fluoro-[1,1′-biphenyl]-3-yl)ethanone]	5.00	< 5.00
O=C(CN1C[C@@H]2C[C@@](O)(Cc3ccccc3)C[C@@H]2C1)c1cccc(-c2cccnc2)c1 [Example 272, 2-((3aR,5r,6aS)-5-benzyl-5-hydroxyhexahydrocyclo-penta[c]pyrrol-2(1H)-yl)-1-(3-(pyridin-3-yl)phenyl)ethanone]	5.00	< 5.00
COc1cccc(-c2cccc(C(=O)CN3C[C@@H]4C[C@@](O)(Cc5ccccc5)C[C@@H]4C3)c2)c1 [Example 273, 2-((3aR,5r,6aS)-5-benzyl-5-hydroxyhexahydrocyclo-penta[c]pyrrol-2(1H)-yl)-1-(3′-methoxy-[1,1′-biphenyl]-3-yl)ethanone]	5.00	< 5.00
O=C(CN1C[C@@H]2C[C@@](O)(Cc3ccccc3)C[C@@H]2C1)c1cccc(-c2ccc(F)cc2)c1 [Example 274, 2-((3aR,5r,6aS)-5-benzyl-5-hydroxyhexahydrocyclo-penta[c]pyrrol-2(1H)-yl)-1-(4′-fluoro-[1,1′-biphenyl]-3-yl)ethanone]	5.00	< 5.00
O=C(CN1C[C@@H]2C[C@@](O)(Cc3ccccc3)C[C@@H]2C1)c1cccc(-c2ccc(O)cc2)c1 [Example 275, 2-((3aR,5r,6aS)-5-benzyl-5-hydroxyhexahydrocyclo-penta[c]pyrrol-2(1H)-yl)-1-(4′-hydroxy-[1,1′-biphenyl]-3-yl)ethanone]	5.00	< 5.00
Cc1cccc(-c2cccc(C(=O)CN3C[C@@H]4C[C@@](O)(Cc5ccccc5)C[C@@H]4C3)c2)c1 [Example 276, 2-((3aR,5r,6aS)-5-benzyl-5-hydroxyhexahydrocyclo-penta[c]pyrrol-2(1H)-yl)-1-(3′-methyl-[1,1′-biphenyl]-3yl)ethanone]	5.00	< 5.00
Cc1cccc(-c2ccc(C(=O)CN3C[C@@H]4C[C@@](O)(CCc5ccccc5)C[C@@H]4C3)cc2)c1 [Example 277]	5.00	< 5.00

Second part, the compound after the results:

pIC50 (NR1/NR2B [1])	pIC50 (NR1/NR2B [2])	SMILES
5.00	< 5.00	O=C(CN1C[C@@H]2C[C@@](O)(Cc3ccccc3)C[C@@H]2C1)c1ccc(-c2ccc(O)cc2)cc1 [Example 257, 2-((3aR,5r,6aS)-5-benzyl-5-hydroxyhexahydrocyclo-penta[c]pyrrol-2(1H)-yl)-1-(4′-hydroxy-[1,1′-biphenyl]-4-yl)ethanone]
5.00	< 5.00	O=C(CN1C[C@@H]2C[C@@](O)(Cc3ccccc3)C[C@@H]2C1)c1ccc(-c2ccccc2)cc1 [Example 258, 1-([1,1′-biphenyl]-4-yl)-2-((3aR,5r,6aS)-5-benzyl-5-hydroxyhexahydrocyclo-penta[c]pyrrol-2(1H)-yl)ethanone]
5.00	< 5.00	COc1ccc(-c2ccc(C(=O)CN3C[C@@H]4C[C@@](O)(Cc5ccccc5)C[C@@H]4C3)cc2)cc1 [Example 259, 2-((3aR,5r,6aS)-5-benzyl-5-hydroxyhexahydrocyclo-penta[c]pyrrol-2(1H)-yl)-1-(4′-methoxy-[1,1′-biphenyl]-4-yl)ethanone]
5.00	< 5.00	Cc1ccccc1-c1ccc(C(=O)CN2C[C@@H]3C[C@@](O)(Cc4ccccc4)C[C@@H]3C2)cc1 [Example 260, 2-((3aR,5r,6aS)-5-benzyl-5-hydroxyhexahydrocyclo-penta[c]pyrrol-2(1H)-yl)-1-(2′-methyl-[1,1′-biphenyl]-4-yl)ethanone]
5.00	< 5.00	O=C(CN1C[C@@H]2C[C@@](O)(Cc3ccccc3)C[C@@H]2C1)c1ccc(-c2cccc(F)c2)cc1 [Example 261, 2-((3aR,5r,6aS)-5-benzyl-5-hydroxyhexahydrocyclo-penta[c]pyrrol-2(1H)-yl)-1-(3′-fluoro-[1,1′-biphenyl]-4-yl)ethanone]
5.00	< 5.00	O=C(CN1C[C@@H]2C[C@@](O)(Cc3ccccc3)C[C@@H]2C1)c1ccc(-c2ccc(F)cc2)cc1 [Example 262, 2-((3aR,5r,6aS)-5-benzyl-5-hydroxyhexahydrocyclo-penta[c]pyrrol-2(1H)-yl)-1-(4′-fluoro-[1,1′-biphenyl]-4-yl)ethanone]
5.00	< 5.00	COc1ccc(-c2cccc(C(=O)CN3C[C@@H]4C[C@@](O)(Cc5ccccc5)C[C@@H]4C3)c2)cc1 [Example 263, 2-((3aR,5r,6aS)-5-benzyl-5-hydroxyhexahydrocyclo-penta[c]pyrrol-2(1H)-yl)-1-(4′-methoxy-[1,1′-biphenyl]-3-yl)ethanone]
5.00	< 5.00	Cc1cccc(-c2ccc(C(=O)CN3C[C@@H]4C[C@@](O)(Cc5ccccc5)C[C@@H]4C3)cc2)c1 [Example 264, 2-((3aR,5r,6aS)-5-benzyl-5-hydroxyhexahydrocyclo-penta[c]pyrrol-2(1H)-yl)-1-(3′-methyl-[1,1′-biphenyl]-4-yl)ethanone]
5.00	< 5.00	COc1cccc(-c2ccc(C(=O)CN3C[C@@H]4C[C@@](O)(Cc5ccccc5)C[C@@H]4C3)cc2)c1 [Example 265, 2-((3aR,5r,6aS)-5-benzyl-5-hydroxyhexahydrocyclo-penta[c]pyrrol-2(1H)-yl)-1-(3′-methoxy-[1,1′-biphenyl]-4-yl)ethanone]
